# From patent US10633389B2, “CARM1 inhibitors and uses thereof” (Epizyme, Inc., priority 2013, dated 2020)
# Test system: asymmetric di-methyl PABP1 in RKO cells
# Assay: RKO methylation assay, In Cell Western (ICW) for asymmetric di-methyl PABP1
# Type: cell-based
# Details: Homo sapiens, RKO, Cellular potencies, ICW PABP1me2a
# Method in brief: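 In-cell Western on fixed RKO cells after 48 h compound exposure: anti-asymmetric di-methyl PABP1 signal at 800 nm over DRAQ5 DNA signal at 700 nm. Percent inhibition set between DMSO wells and wells with 20 μM reference compound; IC50 curves fitted in triplicate.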
row,SMILES,IC50
1,CNC[C@H](O)COc1ccc(Cl)c(-c2nc(N[C@H]3CCN(C(=O)OC)C[C@H]3F)c(C)c(-c3c(C)noc3C)n2)c1 [Example 65-3],< 5 µM
2,CCOC(=O)N1CCOC[C@@H]1CNc1nc(-c2cc(OC[C@H](O)CNC)ccc2Cl)nc(-c2c(C)noc2C)c1Cl [Example 56-3],< 5 µM
3,CNCC(O)COc1cccc(-c2nc(NC3C[C@H]4CC[C@@H](C3)N4C(=O)OC)c(C)c(-c3c(C)noc3C)n2)c1 (some centres unmarked) [Example 242-1a],< 5 µM
4,CCS(=O)(=O)N1CCCC(Nc2nc(-c3cccc(OCC(O)CNC)c3)nc(-c3c(C)noc3C)c2C)C1 (centres unmarked) [Example 204-1a],< 5 µM
5,CNC[C@@H](O)COc1ccc(Cl)c(-c2nc(N[C@H]3CCO[C@@H](C)C3)c(C)c(-c3c(C)noc3C)n2)c1 [Example 128-3],< 5 µM
6,CCN1CCC[C@H]1CNc1nc(-c2cc(OC[C@@H](O)CNC)ccc2Cl)nc(-c2c(C)noc2C)c1C [Example 48-3],< 5 µM
7,CNCC(O)COc1cccc(-c2nc(N[C@@H]3CCOC3)c(C)c(N3CCC4(CN(CC(F)F)C4)C3)n2)c1 (some centres unmarked) [Example 475-1a],5 to 10 µM
8,CNCC(O)COc1cccc(-c2nc(NCC3(N4CCC4)CCOCC3)c(C)c(-c3c(C)noc3C)n2)c1 (centres unmarked) [Example 301-1a],5 to 10 µM
9,CNCC(O)COc1cccc(-c2nc(N[C@@H]3CCOC3)c(C)c(N3CCN(C(C)=O)C(C)(C)C3)n2)c1 (some centres unmarked) [Example 439-1a],5 to 10 µM
10,CNCC(O)COc1cccc(-c2nc(-c3c(C)noc3C)cc(N3CCN(C(=O)C4CC4)CC3)n2)c1 (centres unmarked) [Example 133-1a],< 5 µM
11,CNCC(O)COc1cccc(-c2nc(N[C@H]3CCC[C@@H](O)C3)c(C)c(-c3c(C)noc3C)n2)c1 (some centres unmarked) [Example 10-3],< 5 µM
12,CNC[C@H](O)COc1ccc(F)c(-c2nc(N[C@H]3CCN(C(=O)OC)C[C@H]3F)c(C)c(-c3c(C)noc3C)n2)c1 [Example 63-3],< 5 µM
13,CNCC(O)COc1cc(Cl)cc(-c2nc(Nc3cncnc3)c(C)c(N(C)C3CCOCC3)n2)c1 (centres unmarked) [Example 506-1a],< 5 µM
14,CNC[C@@H](O)COc1ccc(Cl)c(-c2nc(-c3c(C)noc3C)c(C)c(N3Cc4cc(C)cnc4C3)n2)c1 [Example 296-3],< 5 µM
15,CNC[C@@H](O)COc1ccc(Cl)c(-c2nc(-c3c(C)noc3C)c(C)c(N3Cc4cnc(C)nc4C3)n2)c1 [Example 245-3],< 5 µM
16,CNCC(O)COc1ccc(Cl)c(-c2nc(NCC3CCCCO3)c(C)c(-c3c(C)noc3C)n2)c1 (centres unmarked) [Example 31-3],< 5 µM
17,CNCC(O)COc1cccc(-c2nc(NC3CCN(C(=O)OC)CC3)c(Cl)c(-c3c(C)noc3C)n2)c1 (centres unmarked) [Example 202-1a],< 5 µM
18,CNC[C@@H](O)COc1ccc(Cl)c(-c2nc(-c3c(C)noc3C)c(C)c(N3CCC4(CCN(C5CC5)C4)C3)n2)c1 (some centres unmarked) [Example 138-3],< 5 µM
19,CNC[C@@H](O)COc1ccc(Cl)c(-c2nc(N[C@H]3C[C@@H](C)O[C@@H](C)C3)c(Cl)c(-c3c(C)noc3C)n2)c1 [Example 173-3],< 5 µM
20,CNCC(O)COc1cccc(-c2nc(-c3cnc4n3CCNC4)cc(N(C)C3CCOCC3)n2)c1 (centres unmarked) [Example 563-1a],10 to 20 µM
21,CNC[C@@H](O)COc1ccc(F)c(-c2nc(-c3c(C)noc3C)c(C)c(N3CC4(CCN(CC(F)F)CC4)C3)n2)c1 [Example 280-3],< 5 µM
22,CNC[C@@H](O)COc1ccc(Cl)c(-c2nc(-c3c(C)noc3C)c(C)c(N3CCC4(CN(C(=O)OC)C4)C3)n2)c1 [Example 177-3],< 5 µM

row,SMILES,IC50
1,CNCC(O)COc1cccc(-c2nc(-c3c(C)noc3C)cc(N3CCN(C)[C@@H](C)C3)n2)c1 (some centres unmarked) [Example 93-1a],< 5 µM
2,CNCC(O)COc1cccc(-c2nc(-c3c(C)noc3C)cc(N3C[C@H]4C[C@@H]3CN4S(C)(=O)=O)n2)c1 (some centres unmarked) [Example 100-1a],5 to 10 µM
3,CNC[C@@H](O)COc1ccc(C(F)(F)F)c(-c2nc(NC3CCOCC3)c(C)c(-c3c(C)noc3C)n2)c1 [Example 200-3],< 5 µM
4,CNC[C@@H](O)COc1cccc(-c2nc(NCC3CCOCC3)c(C)c(-c3c(C)noc3C)n2)c1 [Example 183-1a],< 5 µM
5,CNC[C@@H](O)COc1ccc(Cl)c(-c2nc(-c3c(C)noc3C)c(Cl)c(N3Cc4nc(C)sc4C3)n2)c1 [Example 243-3],< 5 µM
6,CNCC(O)COc1cc(Cl)cc(-c2nc(C(=O)N(C)CC3CCOCC3)cc(N(C)C3CCOCC3)n2)c1 (centres unmarked) [Example 577-1a],10 to 20 µM
7,CNCC(O)COc1cccc(-c2nc(-c3c(C)noc3C)cc(N3CCN(CCF)[C@@H](C)C3)n2)c1 (some centres unmarked) [Example 103-1a],< 5 µM
8,CNCC(O)COc1cccc(-c2nc(-c3cc4ccccc4o3)cc(N(C)C3CCOCC3)n2)c1 (centres unmarked) [Example 570-1a],10 to 20 µM
9,CNCC(O)COc1cccc(-c2nc(NC3CCOC3)c(C)c(C(=O)NC3CCN(C)CC3)n2)c1 (centres unmarked) [Example 397-1a],10 to 20 µM
10,CNCC(O)COc1cccc(-c2nc(-c3c(C)noc3C)c(C)c(N3CCN(C(=O)OC)C(C(F)F)C3)n2)c1 (centres unmarked) [Example 17-3],< 5 µM
11,CNCC(O)COc1cccc(-c2nc(-c3c(C)noc3C)cc(N3CCN(CC(F)(F)F)CC3)n2)c1 (centres unmarked) [Example 132-1a],< 5 µM
12,CNCC(O)COc1ccc(Cl)c(-c2nc(O[C@H]3CCN(C(=O)OC)[C@@H](C)C3)c(C)c(-c3c(C)noc3C)n2)c1 (some centres unmarked) [Example 36-3],< 5 µM
13,CNC[C@H](O)COc1ccc(Cl)c(-c2nc(N[C@H]3C[C@H](OC)C3)c(C)c(-c3c(C)noc3C)n2)c1 [Example 53-3],< 5 µM
14,CNC[C@@H](O)COc1ccc(Cl)c(-c2nc(N[C@H]3CC[C@@H](OC)C3)c(C)c(-c3c(C)noc3C)n2)c1 [Example 212-3],< 5 µM
15,CNC[C@@H](O)COc1ccc(Cl)c(-c2nc(-c3c(C)noc3C)c(C)c(N3CCC4(CC3)CN(C3CC3)C4)n2)c1 [Example 158-3],< 5 µM
16,CNCC(O)COc1cccc(-c2nc(N[C@@H]3CCN(C4CC4)C[C@@H]3F)c(C)c(-c3c(C)noc3C)n2)c1 (some centres unmarked) [Example 260-1a],< 5 µM
17,CNC[C@@H](O)COc1cccc(-c2nc(-c3cn(S(C)(=O)=O)c4ncncc34)c(C)c(N(C)C3CCOCC3)n2)c1 [Example 488-1a],< 5 µM
18,CNC[C@@H](O)COc1ccc(F)c(-c2nc(-c3c(C)noc3C)c(C)c(N3Cc4cccc(F)c4C3)n2)c1 [Example 266-3],< 5 µM
19,CNC[C@@H](O)COc1ccc(Cl)c(-c2nc(-c3c(C)noc3C)c(C)c(N3Cc4[nH]nc(C)c4C3)n2)c1 [Example 224-3],< 5 µM
20,CC[C@H]1CN(c2nc(-c3cccc(OCC(O)CNC)c3)nc(-c3c(C)noc3C)c2C)CCN1S(=O)(=O)CC (some centres unmarked) [Example 154-1a],< 5 µM
21,CNCC(O)COc1cccc(-c2nc(NC3CCOC(C)C3)c(C)c(-c3c(C)noc3C)n2)c1 (centres unmarked) [Example 239-1a],< 5 µM
22,CNC[C@@H](O)COc1ccc(Cl)c(-c2nc(-c3c(C)noc3C)c(C)c(N3Cc4cnn(C)c4C3)n2)c1 [Example 140-3],< 5 µM

row,SMILES,IC50
1,CCOC(=O)N1CCC[C@@H]1CNc1nc(-c2cc(OC[C@@H](O)CNC)ccc2Cl)nc(-c2c(C)noc2C)c1C [Example 49-3],< 5 µM
2,CNC[C@@H](O)COc1ccc(Cl)c(-c2nc(NC[C@H]3COCCN3C(=O)OC(C)C)c(C)c(-c3c(C)noc3C)n2)c1 [Example 134-3],< 5 µM
3,CNCC(O)COc1cccc(-c2nc(NC3CCCN(C(=O)C4CC4)C3)c(C)c(-c3c(C)noc3C)n2)c1 (centres unmarked) [Example 247-1a],< 5 µM
4,CNCC(O)COc1cccc(-c2nc(NC3CCN(C(=O)OC)C3)c(C)c(-c3c(C)noc3C)n2)c1 (centres unmarked) [Example 186-1a],< 5 µM
5,CNCC(O)COc1ccc(Cl)c(-c2nc(NC3CC4(CC4)C3)c(C)c(-c3c(C)noc3C)n2)c1 (centres unmarked) [Example 218-3],< 5 µM
6,CNCC(O)COc1cccc(-c2nc(N[C@H]3C[C@H](C(C)(C)O)C3)c(C)c(-c3c(C)noc3C)n2)c1 (some centres unmarked) [Example 231-1a],< 5 µM
7,CNCC(O)COc1cccc(-c2nc(NC3CCOCC3)c(C)c(-c3c(C)noc3C3CC3)n2)c1 (centres unmarked) [Example 236-1a],< 5 µM
8,CNC[C@@H](O)COc1ccc(C(F)(F)F)c(-c2nc(-c3c(C)noc3C)c(C)c(N3Cc4cncnc4C3)n2)c1 [Example 247-3],< 5 µM
9,CNCC(O)COc1cccc(-c2nc(-c3cn(S(C)(=O)=O)c4ncncc34)cc(N(C)C3CCOCC3)n2)c1 (centres unmarked) [Example 483-1a],< 5 µM
10,CNC[C@@H](O)COc1cccc(-c2nc(-c3cnc4cnccn34)cc(N(C)C3CCOCC3)n2)c1 [Example 507-1a],< 5 µM
11,CCS(=O)(=O)N1CCC(Nc2nc(-c3cc(OC[C@@H](O)CNC)ccc3Cl)nc(-c3c(C)noc3C)c2C)CC1 [Example 67-3],< 5 µM
12,CNCC(O)COc1cccc(-c2nc(-c3c(C)noc3C)c(C)c(N3CC[C@H](N(C)C(C)=O)C3)n2)c1 (some centres unmarked) [Example 71-1a],< 5 µM
13,CNC[C@@H](O)COc1ccc(Cl)c(-c2nc(-c3c(C)noc3C)c(C)c(N3Cc4nn(C)c(C)c4C3)n2)c1 [Example 252-3],< 5 µM
14,CNC[C@@H](O)COc1ccc(Cl)c(-c2nc(N[C@@H]3CCO[C@H](C)C3)c(Cl)c(-c3c(C)noc3C)n2)c1 [Example 155-3],< 5 µM
15,CNCC(O)COc1cccc(-c2nc(N[C@H]3CCOC3)cc(-c3c(C)noc3C)n2)c1 (some centres unmarked) [Example 13-1a],5 to 10 µM
16,CNCC(O)COc1cccc(-c2nc(NC3CCN(C(=O)OC(C)(C)C)C[C@H]3F)c(C)c(-c3c(C)noc3C)n2)c1 (some centres unmarked) [Example 208-1a],< 5 µM
17,CNCC(O)COc1cccc(-c2nc(-c3cn(C)c4ncncc34)cc(N(C)C3CCOCC3)n2)c1 (centres unmarked) [Example 485-1a],< 5 µM
18,CNCC(O)COc1cccc(-c2nc(N[C@@H]3CCOC3)c(C)c(-c3cnc(OC)nc3)n2)c1 (some centres unmarked) [Example 356-1a],10 to 20 µM
19,CCOC(=O)N1CCC[C@@H]1COc1nc(-c2cc(OC[C@H](O)CNC)ccc2Cl)nc(-c2c(C)noc2C)c1C [Example 133-3],< 5 µM
20,CNCC(O)COc1cccc(-c2nc(N[C@@H]3CCOC3)c(C)c(N3CCCC4(CN(CC(F)F)C4)C3)n2)c1 (some centres unmarked) [Example 469-1a],5 to 10 µM
21,CNCC(O)COc1cccc(-c2nc(N3CCN4C(=O)OC[C@@H]4C3)cc(N(C)C3CCOCC3)n2)c1 (some centres unmarked) [Example 576-1a],10 to 20 µM
